In data set [1] the test system is patients with acne vulgaris. To be noted: references (9), (10), (12); cited from earlier work.
Data set [2] concerns patients diagnosed with moderate acne (Acne vulgaris). As to conditions: four weeks of treatment.
Method: Treatment and follow-up: On the first visit to a doctor, patients received the same information and instructions as given by the manufacturer BioCool®. Each patient received the sodium percarbonate at home. The jars of powder were unmarked but if the patient wished to know the content they were informed. All processing was done at residences of the patient by the patient. 5 ml of sodium percarbonate was dissolved in 5 ml of water at a temperature of 35-40° C. to form a solution. The solution was applied to the face using the fingers, and washed away with tap water after 5 minutes. This procedure was repeated daily by the patient. After about one hour after the treatment the subjects could, if desired, lubricate the skin with a moisturizing product, allowing enough time for the skin pores to close up for any additional product. Follow-up visits occurred weekly for four weeks. At each visit, the patient had completed the rating scale DLQ (Dermatology Life Quality Index), they were photographed and subject to an open interview.
Interview: The patient's subjective experience was investigated with a semi-structured interview based on the query field (8). The interview was conducted by research doctors. […] No recording method was used.
For data set [3] the test system is unchanged. The data set is described as follows: Acne vulgaris pilot study: DLQ (Dermatology Life Quality Index) symptom rating. The data set is classed as in vivo, human. From the text: (§1) Statistical Methods: Dropouts included in the result were 2 patients. These patients were followed up at the doctor's appointment number 2 and the results were included in the so-called “intention to treat” where the values produced two visits was the same for the coming weeks for follow-up visits. The statistical analysis used was t-test and Wilcoxon rank-sum test.
(§2) Each patient received the sodium percarbonate at home. […] This procedure was repeated daily by the patient. […] Follow-up visits occurred weekly for four weeks.
Photography: Each patient was photographed prior to initiation of treatment, and weekly for four weeks. Portrait photo is taken from the front and profile of each view of the face. Photos were taken with the same camera and camera settings and the same photographer. The same light was used by 45-degree angle. However, technology is not validated and all the photos were not taken exactly the same. Each patient was encoded by the study manager with a number. After all the photos were taken, outside observers (fellow doctor) counted the number of acne papule for each patient for each visit, without knowing the visit week during which the photo was taken. […] Results were calculated as an average of the number of acne papule for each visit at the group level. […] Even this was calculated with the average at group level. […]

In data set [4] the test system is individuals with diabetes and neuropathy, feet with moderate to severe skin conditions. Kind of data set: Diabetic Peripheral Neuropathy foot bath study: skin condition of the feet by photos. It counts as in vivo, human. To be noted: for Condition of the feet / skin condition, visual (photos): all patients included, daily foot bath per study protocol, 6 weeks, preliminary results. The protocol:
I. Improvement in skin condition evaluated by photos according to a pre-set scale (1-5): The target population include in this evaluation are adult individuals with diabetes and neuropathy, with feet with moderate to severe skin conditions 7.1.3 Frequency of application. Daily application for 6 weeks or until the signs and symptoms are cleared, then once a week. 1. Start by placing the feet in the footbath, containing 2-3 litres (about 1 gallon) of lukewarm water (about 38° C.). Measure out 15 ml (about 1 tbs.) of granules and add to the footbath. NB! The order is important, the feet must be in the bath before adding the granules. 2. Bathe the feet for about 20 minutes This is a 6-week, single centre, open label evaluation conducted in patients suffering from Diabetic Feet of neuropathic origin with moderate to severe non ulcer pathology (dry skin, cracks, callosities) 9.2 STUDY FLOW CHART visits 0 and 6 weeks for photos, skin evaluation, test protocol and evaluation of safety and concordance At each visit a required medical evaluations is performed at inclusion (0) and 6 weeks (+/−3 days). A photograph is performed and a test protocol is followed regarding skin condition. Any local and general intercurrent events (expected or unexpected) are recorded. Patients receive a patient care diary at their first visit. Investigators are allowed to see patients more frequently if required. 11.3 EVALUATION CRITERIA Improvement of skin condition evaluated by photos analysed by independent observers

Data set [5] relates to patients diagnosed with moderate acne (Acne vulgaris). The data set is described as follows: Acne vulgaris pilot study: blinded acne papule counting from photographs. It counts as in vivo, human.
Text: A study consisted of a total of 16 patients, 2 males and 14 females. Mean age was 28±7 years. The study included men and women, previously healthy, between 18-45 years, not using contraception, not breastfeeding or pregnant, and having been diagnosed with moderate acne. Patients with ongoing treatment for acne vulgaris were excluded or treatment was withdrawn one month before the start of the study. Also, patients who could not follow instructions and who were assumed to have poor compliance were excluded.
as §1, §2
Photography: Each patient was photographed prior to initiation of treatment, and weekly for four weeks. Portrait photo is taken from the front and profile of each view of the face. Photos were taken with the same camera and camera settings and the same photographer. The same light was used by 45-degree angle. However, technology is not validated and all the photos were not taken exactly the same. Each patient was encoded by the study manager with a number. After all the photos were taken, outside observers (fellow doctor) counted the number of acne papule for each patient for each visit, without knowing the visit week during which the photo was taken. The number of acne papules was summed up by frontal view, as well as by the two side views. Results were calculated as an average of the number of acne papule for each visit at the group level. DLQ survey summed with points for each patient for each visit. Even this was calculated with the average at group level.

Data set [6] is described as follows: Duration of effectiveness of the prepared aqueous solution. As to conditions: 1-5 g in 0.05-1 dl of water at 35-40° C.; effectiveness gradually decreases. It counts as physicochemical. The protocol:
The solution obtained according to the method above is effective for about 24 h. […] A new solution must be prepared after 24 hours as the effectiveness of the singlet oxygen in the solution has decreased below an efficient level for treatment. The solution is to be applied to the face and/or affected skin at least once daily.

Data set [7] deals with microorganisms. As to conditions: within the range of 0.5-4% of hydrogen peroxide.

Entries after “also recorded” stand apart in the source; their conditions may differ.

On to `COc1ccc(-c2ccc3cc(C(=O)O)ccc3c2)cc1C12CC3CC(CC(C3)C1)C2` [Adapalene], for which, in data set [1], the “Number of acne papules / efficacy in literature study” value (“Number of acne papules / efficacy” below) was “significant reduced”; the “Safety / tolerance in literature study” value is “safe and effective”.
As for `O=C([O-])[O-].O=C([O-])[O-].OO.OO.OO.[Na+].[Na+].[Na+].[Na+]` [Sodium percarbonate, sodium percarbonate], the “Patients' description of their skin in interviews” value in data set [2] was “cleaner, smoother, softer and firmer”. The “DLQ symptom rating, median” value worked out at 1.5 in data set [3] (after 4 weeks of daily topical treatment, interquartile range 2, p 0.002) and 3 in data set [3] (before treatment (baseline), interquartile range 4). Moreover, the “Condition of the feet (photos), patient No. 01” value in data set [4] (FIG. 4, after 6 weeks of treatment) is “The large crack on the right heel has significantly improved”. For the same compound, in data set [4] (FIG. 5, before vs after treatment), the “Condition of the feet (photos), patient No. 06” value is listed as “the ulcer has declined in size”. Moreover, the “Condition of the feet (photos), patient No. 9” value in data set [4] (FIG. 6, before vs after treatment) was “the hardened patches are no longer present”. The entries for the “Condition of the feet / skin condition, visual (photos)” value in data set [4] and in data set [4] (listed as sodium percarbonate) were “significant visual improvement” and “significant improvement of the skin condition”, respectively. In addition, in data set [5] (4 weeks of treatment), the “Number of acne papule over time (in words)” value is “clearly reduced; also recorded: significantly decreased”. Further, the “Papule count, mean” value in data set [5] (after 4 weeks of daily topical treatment (5 ml in 5 ml water, 5 minutes), SD 10.2, p <0.001 vs before) amounted to 18.3; in data set [5] (before treatment (baseline), 16 patients, SD 12.4) it was 25.4. Further, the “Time to apparent effect on the appearance of new papules” value in data set [5] (topical treatment of Acne vulgaris) is on record as at most 2 weeks. The “Time the prepared solution is effective” value in data set [6] is recorded as “about 24 h”.
For the compound `O=C(OOC(=O)c1ccccc1)c1ccccc1` [benzoyl peroxide], in data set [1], the “Number of acne papules / efficacy” value is listed as “significant reduced”; the “Safety / tolerance in literature study” value is “safe and effective”.
As to `OO` [hydrogen peroxide], in data set [1], the “Number of acne papules / efficacy” value was “at least as good” and the “Safety / tolerance in literature study” value is reported as “better tolerance for skin”. In addition, in data set [7], the “Effect on killing off microorganisms with increasing concentration” value is “practically the same”.

Values taken from patent US20190216848A1, “New Use of Product for Skin Treatment” (BioCool AB, priority 2016, published 2019).
